Reference: ChEMBL document CHEMBL1165975, “Synthesis, molecular modeling and biological evaluation of dithiocarbamates as novel antitubulin agents” (Bioorg Med Chem, 2010)

Legend:
[1] = Inhibition of bovine brain tubulin polymerization after 20 mins; parameters: species or system Bos taurus
[2] = tested on: MCF7; test: Cytotoxicity against human MCF7 cells after 48 hrs by MTT assay; type: functional, cell-based; settings: MCF7, 48 h
[3] = tested on: MCF7; test: Cell cycle arrest in human MCF7 cells assessed as accumulation at S phase at 25 nM after 24 hrs by flow cytometry; type: functional
[4] = tested on: MCF7; test: Cell cycle arrest in human MCF7 cells assessed as accumulation at G1 phase at 25 nM after 24 hrs by flow cytometry; type: functional
[5] = tested on: MCF7; test: Cell cycle arrest in human MCF7 cells assessed as accumulation at G2/M phase at 25 nM after 24 hrs by flow cytometry; type: functional
[6] = tested on: MCF7; test: Cell cycle arrest in human MCF7 cells assessed as accumulation at S phase at 250 nM after 24 hrs by flow cytometry; type: functional
[7] = tested on: MCF7; test: Cell cycle arrest in human MCF7 cells assessed as accumulation at G1 phase at 250 nM after 24 hrs by flow cytometry; type: functional
[8] = tested on: MCF7; test: Cell cycle arrest in human MCF7 cells assessed as accumulation at G2/M phase at 250 nM after 24 hrs by flow cytometry; type: functional

| IC50 [1] [µM] | SMILES | IC50 [2] [µM] | other results |
| --- | --- | --- | --- |
| 15 | CCN(CC)C(=S)SC(CC(=O)c1ccccc1)c1ccc(Cl)cc1 (configuration not stated) | 0.12 | – |
| 250 | CCN(CC)C(=S)SC(CC(C)=O)c1ccccc1 (configuration not stated) | 23 | – |
| 52 | CCN(CC)C(=S)SC(CC(=O)c1ccccc1)c1ccccc1Cl (configuration not stated) | 4.5 | – |
| 180 | CCN(CC)C(=S)SC(CC(=O)c1ccc(OC)cc1)c1ccc(C)cc1 (configuration not stated) | 17 | – |
| 52 | CCN(CC)C(=S)SC(CC(=O)c1ccc(Br)cc1)c1ccc(OC)cc1 (configuration not stated) | 5 | – |
| 80 | CCN(CC)C(=S)SC(CC(=O)c1ccccc1)c1ccc(F)cc1 (configuration not stated) | 0.7 | – |
| 45 | CCN(CC)C(=S)SC(CC(=O)c1ccccc1)c1ccc(OC)cc1 (configuration not stated) | 4.6 | – |
| 12 | CCN(CC)C(=S)SC(CC(=O)c1ccccc1)c1ccc(Br)cc1 (configuration not stated) | 0.08 | – |
| 130 | CCN(CC)C(=S)SC(CC(=O)c1ccccc1)c1ccccc1 (configuration not stated) | 17 | – |
| 60 | CCN(CC)C(=S)SC(CC(=O)c1ccc(Cl)c(Cl)c1)c1ccccc1 (configuration not stated) | 4.5 | – |
| 65 | CCN(CC)C(=S)SC(CC(=O)c1ccc(Br)cc1)c1ccccc1 (configuration not stated) | 5 | – |
| 62 | CCN(CC)C(=S)SC(CC(=O)c1ccc(OC)cc1)c1ccccc1 (configuration not stated) | 4.5 | – |
| 84 | CCN(CC)C(=S)SC(CC(=O)c1ccc(OC)cc1)c1ccc(OC)cc1 (configuration not stated) | 0.8 | – |
| 10 | CCN(CC)C(=S)SC(CC(=O)c1ccc(OC)cc1)c1ccccc1Cl (configuration not stated) | 0.07 | – |
| 18 | CCN(CC)C(=S)SC(CC(=O)c1ccc(Br)cc1)c1ccc(F)cc1 (configuration not stated) | 1 | – |
| 150 | CCN(CC)C(=S)SC(CC(=O)c1ccccc1)c1ccccc1OC (configuration not stated) | 16 | – |
| 6.8 | CCN(CC)C(=S)SC(CC(=O)c1ccc(Cl)cc1)c1ccccc1 (configuration not stated) | 0.04 | Activity [3]: 16.28%; Activity [4]: 50.86%; Activity [5]: 19.99%; Activity [6]: 12.22%; Activity [7]: 12.86%; Activity [8]: 39.54% |
| 90 | CCN(CC)C(=S)SC(CC(=O)c1ccccc1)c1cccc([N+](=O)[O-])c1 (configuration not stated) | 9 | – |
| 140 | CCN(CC)C(=S)SC(CC(=O)c1ccc(OC)cc1)c1ccc(Cl)cc1 (configuration not stated) | 16 | – |
| 220 | CCN(CC)C(=S)SC(CC(=O)c1ccccc1)c1ccc(C)cc1 (configuration not stated) | 20 | – |

| SMILES | IC50 [1] [µM] | IC50 [2] [µM] | other results |
| --- | --- | --- | --- |
| COc1ccc(/C=C\c2cc(OC)c(OC)c(OC)c2)cc1O [COMBRETASTATIN A4] | 2.2 | – | – |
| COc1cc2c(c(OC)c1OC)-c1ccc(OC)c(=O)cc1[C@@H](NC(C)=O)CC2 [COLCHICINE] | 3.2 | 0.017 | Activity [3]: 15.96%; Activity [4]: 24.31%; Activity [5]: 32.28% |
